In ChEMBL document CHEMBL3044687, “Microwave-assisted synthesis of some novel and potent antibacterial and antifungal compounds with biological screening” (2012) one finds zone of inhibition data, which are given here for nine molecules.

Format in all cases: functional
What all share (conditions): read-out: DIZ

Test [1] has as its system Candida albicans. Description: Antifungal activity against Candida albicans at 200 ug/ml after 48 hr by disk diffusion method. Background: In agar diffusion tests the substance spreads into inoculated agar from a disc or well.
In test [2] the test system is Staphylococcus aureus. Description: Antibacterial activity against Staphylococcus aureus at 100 ug/ml after 24 hr by disk diffusion method.
Test [3] relates to Candida albicans. Description: Antifungal activity against Candida albicans at 100 ug/ml after 48 hr by disk diffusion method.
Test [4] deals with Staphylococcus aureus. The experiment in a line: Antibacterial activity against Staphylococcus aureus at 50 ug/ml after 24 hr by disk diffusion method.
The test system of test [5] is Pseudomonas aeruginosa. Description: Antibacterial activity against Pseudomonas aeruginosa at 200 ug/ml after 24 hr by disk diffusion method.
Test [6] relates to Bacillus subtilis. Description: Antibacterial activity against Bacillus subtilis at 100 ug/ml after 24 hr by disk diffusion method.
Test [7] deals with Escherichia coli. The experiment in a line: Antibacterial activity against Escherichia coli at 200 ug/ml after 24 hr by disk diffusion method.
Test [8] concerns Staphylococcus aureus. The experiment in a line: Antibacterial activity against Staphylococcus aureus at 200 ug/ml after 24 hr by disk diffusion method.
Test [9] has as its system Escherichia coli. The experiment in a line: Antibacterial activity against Escherichia coli at 50 ug/ml after 24 hr by disk diffusion method.
Test [10] concerns Bacillus subtilis. Description: Antibacterial activity against Bacillus subtilis at 50 ug/ml after 24 hr by disk diffusion method.
Test [11] has as its system Escherichia coli. The experiment in a line: Antibacterial activity against Escherichia coli at 100 ug/ml after 24 hr by disk diffusion method.
The subject of test [12] is Aspergillus niger. Description: Antifungal activity against Aspergillus niger at 100 ug/ml after 48 hr by disk diffusion method.
Test [13] concerns Bacillus subtilis. The experiment in a line: Antibacterial activity against Bacillus subtilis at 200 ug/ml after 24 hr by disk diffusion method.
Test [14] relates to Pseudomonas aeruginosa. The experiment in a line: Antibacterial activity against Pseudomonas aeruginosa at 50 ug/ml after 24 hr by disk diffusion method.
In test [15] the test system is Aspergillus niger. The experiment in a line: Antifungal activity against Aspergillus niger at 50 ug/ml after 48 hr by disk diffusion method.
Test [16] deals with Candida albicans. Description: Antifungal activity against Candida albicans at 50 ug/ml after 48 hr by disk diffusion method.
The test system of test [17] is Aspergillus niger. The experiment in a line: Antifungal activity against Aspergillus niger at 200 ug/ml after 48 hr by disk diffusion method.
In test [18] the test system is Pseudomonas aeruginosa. The experiment in a line: Antibacterial activity against Pseudomonas aeruginosa at 100 ug/ml after 24 hr by disk diffusion method.

Take `CCN(CC)CN1C(=O)N(c2ccccc2)C(=O)C1(c1ccccc1)c1ccccc1`: the zone of inhibition at 200 µg/mL is 11 mm in the test with Candida albicans [1]; 14 mm in the test with Pseudomonas aeruginosa [5]; 18 mm in the test with Escherichia coli [7]; 14 mm with Staphylococcus aureus [8]; 13 mm in the test with Bacillus subtilis [13]; 12 mm in the test on Aspergillus niger [17]. For the same molecule, the zone of inhibition at 100 µg/mL with Staphylococcus aureus [2] was 10 mm; with Candida albicans [3] it was 10 mm; in the test on Bacillus subtilis [6] it was 9 mm; with Escherichia coli [11], 13 mm; with Aspergillus niger [12], 10 mm; in the test with Pseudomonas aeruginosa [18], 9 mm. The zone of inhibition at 50 µg/mL in the test on Staphylococcus aureus [4] was 5 mm; in the test on Escherichia coli [9] it was 3 mm; with Bacillus subtilis [10], 3 mm; with Pseudomonas aeruginosa [14] it was 5 mm; in the test on Aspergillus niger [15], 8 mm; in the test with Candida albicans [16] it was 9 mm.

Regarding `CN(C)CN1C(=O)N(c2ccccc2)C(=O)C1(c1ccccc1)c1ccccc1`, the zone of inhibition at 200 µg/mL in the test on Candida albicans [1] was 19 mm; in the test on Pseudomonas aeruginosa [5], 14 mm; with Escherichia coli [7] it was 18 mm; in the test with Staphylococcus aureus [8], 12 mm; in the test on Bacillus subtilis [13] it was 18 mm; with Aspergillus niger [17], 18 mm. The zone of inhibition at 100 µg/mL in the test on Staphylococcus aureus [2] came out at 9 mm; with Candida albicans [3], 18 mm; in the test with Bacillus subtilis [6] it was 10 mm; with Escherichia coli [11], 13 mm; with Aspergillus niger [12], 18 mm; in the test on Pseudomonas aeruginosa [18] it was 10 mm. The zone of inhibition at 50 µg/mL with Staphylococcus aureus [4] came out at 4 mm; in the test on Escherichia coli [9], 5 mm; with Bacillus subtilis [10], 5 mm; in the test on Pseudomonas aeruginosa [14] it was 6 mm; in the test with Aspergillus niger [15], 16 mm; in the test with Candida albicans [16], 16 mm.

As to `O=C1NC(c2ccccc2)(c2ccccc2)C(=O)N1Cn1cnc2ccccc21`, the zone of inhibition at 200 µg/mL in the test on Candida albicans [1] worked out at 32 mm; with Pseudomonas aeruginosa [5] it was 14 mm; in the test on Escherichia coli [7], 24 mm; in the test with Staphylococcus aureus [8], 15 mm; with Bacillus subtilis [13], 23 mm; in the test with Aspergillus niger [17] it was 32 mm. For the same molecule, the zone of inhibition at 100 µg/mL in the test with Staphylococcus aureus [2] came to 13 mm; in the test on Candida albicans [3], 24 mm; in the test on Bacillus subtilis [6], 13 mm; with Escherichia coli [11], 15 mm; in the test with Aspergillus niger [12], 19 mm; in the test on Pseudomonas aeruginosa [18], 11 mm. Besides, the zone of inhibition at 50 µg/mL with Staphylococcus aureus [4] came to 5 mm; in the test on Escherichia coli [9], 7 mm; with Bacillus subtilis [10], 5 mm; in the test with Pseudomonas aeruginosa [14], 6 mm; with Aspergillus niger [15], 16 mm; with Candida albicans [16], 16 mm.

Regarding `CN(C)CN1C(=O)NC(c2ccccc2)(c2ccccc2)C1=O`, the zone of inhibition at 200 µg/mL was 19 mm with Candida albicans [1]; 17 mm in the test with Pseudomonas aeruginosa [5]; 22 mm in the test on Escherichia coli [7]; 12 mm in the test on Staphylococcus aureus [8]; 22 mm in the test on Bacillus subtilis [13]; 18 mm in the test on Aspergillus niger [17]. The zone of inhibition at 100 µg/mL in the test with Staphylococcus aureus [2] turned out to be 9 mm; with Candida albicans [3], 18 mm; with Bacillus subtilis [6], 10 mm; in the test with Escherichia coli [11], 13 mm; in the test on Aspergillus niger [12], 18 mm; with Pseudomonas aeruginosa [18], 10 mm. Also, the zone of inhibition at 50 µg/mL in the test with Staphylococcus aureus [4] is 4 mm; in the test with Escherichia coli [9], 5 mm; with Bacillus subtilis [10] it was 5 mm; with Pseudomonas aeruginosa [14], 6 mm; with Aspergillus niger [15], 16 mm; in the test with Candida albicans [16], 16 mm.

For the molecule `O=C1NC(c2ccccc2)(c2ccccc2)C(=O)N1CN1C(=O)c2ccccc2C1=O`, the zone of inhibition at 200 µg/mL came to 20 mm in the test with Candida albicans [1]; 10 mm in the test with Pseudomonas aeruginosa [5]; 20 mm in the test with Escherichia coli [7]; 9 mm in the test with Staphylococcus aureus [8]; 16 mm in the test with Bacillus subtilis [13]; 16 mm with Aspergillus niger [17]. Further, the zone of inhibition at 100 µg/mL in the test on Staphylococcus aureus [2] worked out at 6 mm; in the test on Candida albicans [3], 16 mm; with Bacillus subtilis [6], 12 mm; with Escherichia coli [11] it was 12 mm; in the test on Aspergillus niger [12], 15 mm; in the test on Pseudomonas aeruginosa [18] it was 8 mm. Besides, the zone of inhibition at 50 µg/mL with Staphylococcus aureus [4] is 4 mm; in the test with Escherichia coli [9], 5 mm; with Bacillus subtilis [10], 4 mm; with Pseudomonas aeruginosa [14], 5 mm; in the test with Aspergillus niger [15], 12 mm; with Candida albicans [16], 15 mm.

With `O=C1NC(c2ccccc2)(c2ccccc2)C(=O)N1Cn1nnc2ccccc21`, the zone of inhibition at 200 µg/mL in the test on Candida albicans [1] was 13 mm; with Pseudomonas aeruginosa [5], 14 mm; with Escherichia coli [7] it was 18 mm; with Staphylococcus aureus [8], 18 mm; in the test on Bacillus subtilis [13], 22 mm; in the test with Aspergillus niger [17] it was 11 mm. In addition, the zone of inhibition at 100 µg/mL in the test with Staphylococcus aureus [2] was 12 mm; with Candida albicans [3], 12 mm; with Bacillus subtilis [6], 14 mm; in the test with Escherichia coli [11], 10 mm; in the test on Aspergillus niger [12], 11 mm; in the test on Pseudomonas aeruginosa [18], 10 mm. For the same molecule, the zone of inhibition at 50 µg/mL in the test with Staphylococcus aureus [4] was found to be 6 mm; in the test with Escherichia coli [9], 3 mm; with Bacillus subtilis [10], 5 mm; in the test with Pseudomonas aeruginosa [14] it was 6 mm; in the test with Aspergillus niger [15] it was 11 mm; in the test on Candida albicans [16], 11 mm.

As to `O=C1c2ccccc2C(=O)N1CN1C(=O)N(c2ccccc2)C(=O)C1(c1ccccc1)c1ccccc1`, the zone of inhibition at 200 µg/mL in the test on Candida albicans [1] was 20 mm; with Pseudomonas aeruginosa [5], 10 mm; in the test on Escherichia coli [7], 20 mm; in the test on Staphylococcus aureus [8] it was 9 mm; in the test on Bacillus subtilis [13] it was 14 mm; with Aspergillus niger [17], 16 mm. In addition, the zone of inhibition at 100 µg/mL in the test on Staphylococcus aureus [2] was 6 mm; in the test on Candida albicans [3], 16 mm; in the test with Bacillus subtilis [6], 10 mm; with Escherichia coli [11], 12 mm; with Aspergillus niger [12] it was 15 mm; in the test with Pseudomonas aeruginosa [18], 8 mm. The zone of inhibition at 50 µg/mL is 4 mm in the test on Staphylococcus aureus [4]; 5 mm with Escherichia coli [9]; 4 mm with Bacillus subtilis [10]; 5 mm with Pseudomonas aeruginosa [14]; 12 mm in the test with Aspergillus niger [15]; 15 mm in the test with Candida albicans [16].

Regarding `O=C1NC(c2ccccc2)(c2ccccc2)C(=O)N1CNc1nc2ccccc2s1`, the zone of inhibition at 200 µg/mL in the test on Candida albicans [1] was 32 mm; in the test on Pseudomonas aeruginosa [5] it was 20 mm; in the test on Escherichia coli [7] it was 23 mm; in the test with Staphylococcus aureus [8] it was 19 mm; with Bacillus subtilis [13], 21 mm; in the test on Aspergillus niger [17] it was 31 mm. For the same molecule, the zone of inhibition at 100 µg/mL in the test with Staphylococcus aureus [2] turned out to be 10 mm; in the test on Candida albicans [3] it was 18 mm; in the test on Bacillus subtilis [6] it was 10 mm; in the test with Escherichia coli [11] it was 15 mm; in the test with Aspergillus niger [12], 19 mm; with Pseudomonas aeruginosa [18], 12 mm. Further, the zone of inhibition at 50 µg/mL was determined as 5 mm with Staphylococcus aureus [4]; 6 mm in the test with Escherichia coli [9]; 7 mm in the test with Bacillus subtilis [10]; 7 mm with Pseudomonas aeruginosa [14]; 16 mm with Aspergillus niger [15]; 17 mm in the test on Candida albicans [16].

In the case of `O=C1NC(c2ccccc2)(c2ccccc2)C(=O)N1CNc1nccs1`, the zone of inhibition at 200 µg/mL was 13 mm with Candida albicans [1]; 20 mm in the test on Pseudomonas aeruginosa [5]; 24 mm with Escherichia coli [7]; 21 mm with Staphylococcus aureus [8]; 19 mm in the test on Bacillus subtilis [13]; 11 mm in the test on Aspergillus niger [17]. Moreover, the zone of inhibition at 100 µg/mL in the test on Staphylococcus aureus [2] was 10 mm; in the test on Candida albicans [3], 12 mm; in the test on Bacillus subtilis [6] it was 11 mm; with Escherichia coli [11], 15 mm; in the test with Aspergillus niger [12] it was 11 mm; in the test with Pseudomonas aeruginosa [18], 12 mm. For the same molecule, the zone of inhibition at 50 µg/mL was 4 mm with Staphylococcus aureus [4]; 6 mm with Escherichia coli [9]; 5 mm in the test on Bacillus subtilis [10]; 4 mm in the test on Pseudomonas aeruginosa [14]; 11 mm with Aspergillus niger [15]; 11 mm with Candida albicans [16].
